Test results taken from US20060264443A1, “Treatment of rheumatoid arthritis” (priority 2002, published 2006).
Where two headings read alike, the source gives them in different places.

What was measured:
[1] = tested on: patients with active severe rheumatoid arthritis; conditions: for Serum C-reactive protein: normal reference range <10 mg/l; for Rheumatoid factor: normal reference range <14 IU/ml
Method: If grade 3 or 4 toxicity occurs at the dose of 200 mg/day, the patient is removed from the study.
On each visit complete physical check up is performed (including blood pressure, pulse, body weight) and the following parameters will be assessed:
The oral glucocorticoid dose is required to be 15 mg or less of prednisone or equivalent.
A dose-escalation scheme is used. The starting dose is 200 mg per day for 2 weeks given as one 100 mg capsule taken in the morning and another in the afternoon.
The injected joints were omitted from efficacy analyses.
The primary efficacy measures were: change in the number of tender and swollen joints among the 66 diarthrodial joints, patient assessed pain and disease activity as estimated using the visual analogue scales (VAS), change in the blood erythrocyte sedimentation rate (ESR) and the serum C-reactive protein (CRP) level, and change in the health assessment questionnaire (HAQ) score. […] Serum CRP and blood ESR are measured prior to the study and on the study weeks 2, 4, 8, and 12.

CS(=O)(=O)O.Cc1ccc(NC(=O)c2ccc(CN3CCN(C)CC3)cc2)cc1Nc1nccc(-c2cccnc2)n1 [SALT I]
anti-rheumatic effect, duration ([1]; 2 patients who completed the 12-week study): sustained during the study period
outcome measures during SALT I therapy (overall) ([1]; 3 patients, 200 to 400 mg/day, up to 12 weeks): All outcome measures improved
HAQ ([1]; Patient 1, week 8, baseline 1.75): 1.5
Serum C-reactive protein ([1]; Patient 1, week 8, baseline 10): 11 mg/L
Erythrocyte sedimentation rate ([1]; Patient 1, week 8, baseline 38): 23 mm/h
Patient-assessed disease activity (VAS) ([1]; Patient 1, week 8, baseline 77): 39 mm
Pain (VAS) ([1]; Patient 1, week 8, baseline 79): 42 mm
Rheumatoid factor ([1]; Patient 1, week 8, baseline 197): 65 IU/ml
HAQ ([1]; Patient 2, week 12, baseline 1.75): 0.75
Serum C-reactive protein ([1]; Patient 2, week 12, baseline 36): 12 mg/L
Pain (VAS) ([1]; Patient 2, week 12, baseline 77): 26 mm
Patient-assessed disease activity (VAS) ([1]; Patient 2, week 12, baseline 96): 35 mm
Rheumatoid factor ([1]; Patient 2, week 12, baseline 501): 270 IU/ml
Erythrocyte sedimentation rate ([1]; Patient 2, week 12, no baseline value): 13 mm/h
HAQ ([1]; Patient 3, week 12, baseline 1.5): 1.1
Erythrocyte sedimentation rate ([1]; Patient 3, week 12, baseline 28): 12 mm/h
Pain (VAS) ([1]; Patient 3, week 12, baseline 37): 22 mm
Serum C-reactive protein ([1]; Patient 3, week 12, baseline 42): 10 mg/L
Patient-assessed disease activity (VAS) ([1]; Patient 3, week 12, baseline 69): 23 mm
Morning stiffness ([1]; Patient no. 1, during the study, from 45 min): none
blood erythrocyte sedimentation rate ([1]; Patient no. 3, 24 weeks): 17 mm/h
duration of the morning stiffness ([1]; Patient no. 3, 24 weeks): 30 min
serum CRP level ([1]; Patient no. 3, 24 weeks): 9 mg/L
serum rheumatoid factor level ([1]; Patient no. 3, 24 weeks): 139 IU/ml
number of swollen joints ([1]; Patient no. 3, 24 weeks, 400 mg o.d.): 15
Morning stiffness ([1]; Patient no. 3, during the study (12 weeks), from 180 min): 75 min
response of rheumatoid arthritis to treatment ([1]; all 3 patients): responded favorably
joint pain reported by all patients ([1]; first week of treatment, subsided below baseline during second study week): increased joint pain
RA status (patient with severe RA; January 2003, 400 mg daily, prior RA medication discontinued): still in remission
occasional macroscopic hematuria (RA-associated glomerulonephritis) (patient with severe RA; Jun. 14, 2001): had ceased
patient-reported RA condition (patient with severe RA; Jun. 14, 2001, 400 mg/day, prednisone reduced to 5 mg o.d.): further subjective improvement of their RA
RA status (patient with severe RA; September 2001): still in remission
RA condition (patient with severe RA; after 2 and 5 months of treatment, with prednisone 5 mg/day): further major improvements
patient-reported general condition (patient with severe RA; after several days, with prednisone 5 mg/day, 600 mg then 400 mg/day orally): improved joint motility and decrease of wrist swelling
patient-reported RA condition (patient with severe RA; control visit April 17, 600 mg/day for nine days, pause, then 400 mg/day from April 11): improved joint motility and decreased swelling particularly in the wrists
